Data reported in ChEMBL document CHEMBL5380790 (J Med Chem, 2023).
Values after ≈ are worked out from the molar mass of the structure shown.

Experiments:
[1] = Kinetic solubility of compound in PBS buffer at pH 7.4 and measured after 2 hrs by HPLC-UV analysis; type: physicochemical; conditions: read-out: Kinetic_solubility
[2] = molecular target: Mast/stem cell growth factor receptor Kit (Homo sapiens, UniProt P10721, DELTA560/V654A); type: cell-based, GIST-430/654
[3] = molecular target: Mast/stem cell growth factor receptor Kit (Homo sapiens, UniProt P10721, V654A); assay: Inhibition of recombinant human KIT V654A mutant using polyGT and ATP as substrate preincubated for 20 mins followed by substrate addition and measured after 240 mins by FRET assay
[4] = molecular target: hERG (KCNH2) potassium channel (Homo sapiens, UniProt Q12809); assay: Inhibition of human ERG potassium channel transfected in HEK293 cells at holding potential -80 mV at 10 uM and measured for 5 mins by whole cell patch clamp assay; type: toxicity, cell-based; conditions: HEK293 cells transfected with hERG
[5] = Dissociation constant, pKa of the compound; type: physicochemical
[6] = Efflux ratio of apparent permeability from basolateral to apical side over apical to basolateral side in human Caco-2 cells at 1 uM and measured after 2 hrs by LC-MS/MS analysis; type: ADME, cell-based
[7] = Metabolic stability in human hepatocytes assessed as intrinsic clearance measured per million cells; type: ADME, cell-based, Hepatocyte; conditions: read-out: CLH
[8] = Apparent passive permeability of compound in human Caco-2 cells at 1 uM and measured after 2 hrs by LC-MS/MS analysis; type: ADME, cell-based
[9] = Octanol-water distribution coefficient, logD of the compound at pH 7.4; type: physicochemical
[10] = Solubility of compound in FaSSIF at pH 6.5; type: physicochemical
[11] = Metabolic stability in mouse liver microsomes assessed as intrinsic clearance in presence of NADPH by UPLC analysis; type: ADME, Microsome; conditions: read-out: CLH
[12] = Metabolic stability in human liver microsomes assessed as intrinsic clearance in presence of NADPH by UPLC analysis; type: ADME, Microsome; conditions: read-out: CLH

Mast/stem cell growth factor receptor Kit (Homo sapiens, UniProt P10721, DELTA560/V654A), sequence (P10721 whole entry, looked up, stated change not applied): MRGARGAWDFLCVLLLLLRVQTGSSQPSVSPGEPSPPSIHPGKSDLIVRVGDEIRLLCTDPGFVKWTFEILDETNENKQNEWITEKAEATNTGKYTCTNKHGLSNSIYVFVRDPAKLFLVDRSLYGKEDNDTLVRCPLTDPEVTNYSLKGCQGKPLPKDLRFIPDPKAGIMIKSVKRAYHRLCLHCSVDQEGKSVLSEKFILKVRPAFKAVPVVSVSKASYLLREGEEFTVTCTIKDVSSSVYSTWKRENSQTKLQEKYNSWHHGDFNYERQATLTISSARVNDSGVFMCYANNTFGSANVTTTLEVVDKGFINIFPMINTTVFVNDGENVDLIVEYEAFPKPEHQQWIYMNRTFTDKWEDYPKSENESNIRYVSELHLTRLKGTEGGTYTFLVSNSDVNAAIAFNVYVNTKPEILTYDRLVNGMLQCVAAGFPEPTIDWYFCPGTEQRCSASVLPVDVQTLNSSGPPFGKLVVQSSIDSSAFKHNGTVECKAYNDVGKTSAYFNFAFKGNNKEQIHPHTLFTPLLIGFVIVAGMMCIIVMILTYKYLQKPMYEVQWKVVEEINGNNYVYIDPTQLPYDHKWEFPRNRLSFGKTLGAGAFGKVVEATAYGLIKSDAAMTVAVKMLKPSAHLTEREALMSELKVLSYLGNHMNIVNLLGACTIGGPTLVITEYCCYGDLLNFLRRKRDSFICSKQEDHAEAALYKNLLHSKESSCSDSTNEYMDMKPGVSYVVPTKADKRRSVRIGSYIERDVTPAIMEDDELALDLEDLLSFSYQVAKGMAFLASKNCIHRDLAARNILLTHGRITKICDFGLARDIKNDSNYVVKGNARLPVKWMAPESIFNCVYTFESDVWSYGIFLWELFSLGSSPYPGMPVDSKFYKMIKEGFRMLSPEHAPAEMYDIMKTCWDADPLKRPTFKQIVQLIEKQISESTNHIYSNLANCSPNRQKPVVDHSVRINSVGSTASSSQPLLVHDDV
Mast/stem cell growth factor receptor Kit (Homo sapiens, UniProt P10721, V654A), sequence (P10721 26-976 V654A limits assumed): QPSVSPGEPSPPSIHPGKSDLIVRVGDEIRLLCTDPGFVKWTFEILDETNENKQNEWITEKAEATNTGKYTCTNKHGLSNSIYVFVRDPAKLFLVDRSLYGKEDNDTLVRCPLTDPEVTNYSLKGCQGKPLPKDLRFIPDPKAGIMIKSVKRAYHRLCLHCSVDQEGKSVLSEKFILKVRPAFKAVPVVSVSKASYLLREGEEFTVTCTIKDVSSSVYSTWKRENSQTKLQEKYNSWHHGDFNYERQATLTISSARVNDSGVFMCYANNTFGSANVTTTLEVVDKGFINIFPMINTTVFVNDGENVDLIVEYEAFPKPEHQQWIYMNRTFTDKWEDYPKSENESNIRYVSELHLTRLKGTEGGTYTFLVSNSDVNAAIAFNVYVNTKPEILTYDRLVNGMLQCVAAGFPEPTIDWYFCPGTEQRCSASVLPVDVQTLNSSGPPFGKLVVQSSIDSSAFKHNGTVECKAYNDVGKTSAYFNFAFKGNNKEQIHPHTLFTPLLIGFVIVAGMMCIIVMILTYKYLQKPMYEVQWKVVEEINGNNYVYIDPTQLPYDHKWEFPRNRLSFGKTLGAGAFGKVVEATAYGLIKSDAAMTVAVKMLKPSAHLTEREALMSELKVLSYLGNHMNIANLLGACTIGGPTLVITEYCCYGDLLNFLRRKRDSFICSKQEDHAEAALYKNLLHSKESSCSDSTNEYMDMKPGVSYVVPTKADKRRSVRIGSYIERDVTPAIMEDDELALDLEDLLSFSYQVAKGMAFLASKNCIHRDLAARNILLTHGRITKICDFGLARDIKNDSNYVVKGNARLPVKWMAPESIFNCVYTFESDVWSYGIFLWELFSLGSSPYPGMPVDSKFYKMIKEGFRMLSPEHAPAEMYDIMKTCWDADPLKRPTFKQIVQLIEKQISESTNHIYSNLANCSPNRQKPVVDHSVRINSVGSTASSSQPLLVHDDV
hERG (KCNH2) potassium channel, sequence (Q12809 whole entry): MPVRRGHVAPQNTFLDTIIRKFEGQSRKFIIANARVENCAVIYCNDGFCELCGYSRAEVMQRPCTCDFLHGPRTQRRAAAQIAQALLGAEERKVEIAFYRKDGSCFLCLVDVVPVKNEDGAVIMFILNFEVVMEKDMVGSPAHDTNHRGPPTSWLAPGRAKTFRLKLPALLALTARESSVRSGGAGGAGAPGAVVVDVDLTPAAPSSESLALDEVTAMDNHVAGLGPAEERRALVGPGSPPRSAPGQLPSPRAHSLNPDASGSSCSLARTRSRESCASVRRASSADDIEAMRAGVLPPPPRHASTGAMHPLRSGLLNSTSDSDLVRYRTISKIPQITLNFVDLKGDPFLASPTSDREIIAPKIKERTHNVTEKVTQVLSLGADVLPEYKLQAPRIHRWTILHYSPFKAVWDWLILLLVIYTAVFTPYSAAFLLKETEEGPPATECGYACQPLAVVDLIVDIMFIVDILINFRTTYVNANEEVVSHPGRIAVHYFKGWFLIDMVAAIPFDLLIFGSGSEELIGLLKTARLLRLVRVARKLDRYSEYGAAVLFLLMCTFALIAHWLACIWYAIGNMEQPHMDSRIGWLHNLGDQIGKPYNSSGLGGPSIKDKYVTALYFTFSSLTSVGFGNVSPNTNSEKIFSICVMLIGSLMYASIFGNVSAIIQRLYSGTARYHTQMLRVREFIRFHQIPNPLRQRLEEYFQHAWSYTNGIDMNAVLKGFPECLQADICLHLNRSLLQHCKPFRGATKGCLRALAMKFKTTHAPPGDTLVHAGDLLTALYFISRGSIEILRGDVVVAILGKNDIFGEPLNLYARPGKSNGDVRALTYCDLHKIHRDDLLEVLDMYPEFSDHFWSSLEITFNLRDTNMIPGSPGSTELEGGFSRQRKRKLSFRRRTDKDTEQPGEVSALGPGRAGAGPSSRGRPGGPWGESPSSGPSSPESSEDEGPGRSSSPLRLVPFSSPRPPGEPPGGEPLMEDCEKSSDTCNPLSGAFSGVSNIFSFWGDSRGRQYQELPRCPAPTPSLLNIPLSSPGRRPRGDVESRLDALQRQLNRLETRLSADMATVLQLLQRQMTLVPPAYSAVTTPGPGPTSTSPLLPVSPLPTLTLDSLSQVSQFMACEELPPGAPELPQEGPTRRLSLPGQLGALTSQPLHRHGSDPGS

Structure (SMILES) | solubility kinetic at 2 h [1] [µM] | IC50 [2] [nM] | IC50 [3] [nM] | inhibition at 5 min, 10 µM [4] [%] | pKa [5] | efflux ratio at 2 h, 1 µM [6] | hepatocyte CLint [7] [µL/min/1e6 cells] | Papp at 2 h, 1 µM [8] [×10⁻⁶ cm/s] | logD [9] | solubility [10] [µg/mL] | microsomal CLint [11] [µL/min/mg] | microsomal CLint [12] [µL/min/mg]
c1ccn2c(-c3nccc(NCc4ccc(N5CCCC5)cc4)n3)cnc2c1 | 7 (≈ 2.59 µg/mL) | 680 | 5.6 |  |  |  |  |  |  |  |  | 
Cn1cc(-c2ccc(CNc3cc(-c4cnc5cc(OCCN6CCCC6)ccn45)ncn3)cc2)cn1 |  | 70 |  | -78 | 9.1 | 5.4 | 18 | 12 | 2.9 |  |  | 
Cc1nc(-c2ccc(CNc3cc(-c4cnc5cc(OCCN6CCC(=O)N(C)CC6)ccn45)ncn3)cc2)co1 |  | 54 |  | -7 | 6.3 | 7.5 | 6 | 7.6 | 3.2 | 10 (≈ 18.1 µM) |  | 
COc1ccn2c(-c3cncc(NCc4ccc(N5CCCC5)nc4)c3)cnc2c1 | 81 (≈ 32.4 µg/mL) | 300 | 13 |  |  |  |  |  |  |  | > 75 | > 75
COc1ccn2c(-c3cc(NCc4ccc(-c5cnn(C)c5)cc4)ncn3)cnc2c1 | < 2 | 55 |  |  |  |  |  |  |  |  | < 10 | < 10
COCCOc1ccn2c(-c3cc(NCc4ccc(-c5cnn(C)n5)cc4)ncn3)cnc2c1 |  | 46 |  |  |  | 0.8 | 4 | 6.4 | 3 |  |  | 
CN(C)CCCOc1ccn2c(-c3cc(NCc4ccc(-c5cnn(C)c5)cc4)ncn3)cnc2c1 |  | 43 |  | -86 |  |  |  |  | 2.5 |  |  | 
Cn1cc(-c2ccc(CNc3cc(-c4cnc5cc(OCCO)ccn45)ncn3)cc2)cn1 |  | 75 |  | -23 |  | 5 | 9 | 21 | 3 | 13 (≈ 29.4 µM) |  | 
CC(Nc1cncc(-c2cnc3ccccn23)c1)c1ccc(N2CCCC2)nc1 (centres undefined) | 124 (≈ 47.7 µg/mL) | 2600 | 83 |  |  |  |  |  |  |  | > 75 | > 75
Cn1cc(-c2ccc(CNc3cc(-c4cnc5cc(OCCN6CCC(C)(C#N)CC6)ccn45)ncn3)cc2)cn1 |  | 93 |  | -15 | 6.9 | 4.7 | 16 | 3.1 | 4.4 | 16 (≈ 29.2 µM) |  | 
Cn1cc(-c2ccc(CNc3cc(-c4cnc5cc(OCCN6CCn7nncc7C6)ccn45)ncn3)cc2)cn1 |  | 76 |  | -8 | 5.8 | 18 | < 4 | 7.6 | 2.8 | 10 (≈ 18.3 µM) |  | 
COc1ccn2c(-c3cc(NCc4ccc(-c5cnn(C)n5)cc4)ncn3)cnc2c1 |  | 78 |  |  |  | 0.7 | 8 | 9.5 | 4 | 4 (≈ 9.7 µM) |  | 
